In US9718804B2, “GSK-3 inhibitors” (BRISTOL-MYERS SQUIBB COMPANY, priority 2013, dated 2017):
Where two headings read alike, the source gives them in different places.

Tests used:
GSK3α = GSK3α (Homo sapiens, UniProt P49840); experiment: GSK3α kinase assay (Caliper LabChip, fluoresceinated peptide substrate); format: biochemical
In short: (§1)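 Reactions run 20 hours at room temperature, stopped with EDTA. Phosphorylated and unphosphorylated fluoresceinated peptide separated electrophoretically on Caliper LabChip3000. Eleven compound concentrations tested; IC50 by non-linear regression.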

GSK3β = GSK3β (Homo sapiens, UniProt P49841); experiment: GSK3β kinase assay (Caliper LabChip, fluoresceinated peptide substrate); format: biochemical
In short: as §1

pTau = pTau assay (no method described); format: cell-based
[1] = second value of the cell, 250 pM enzyme, 20 uM ATP, 20 hours at room temperature, read-out: GSK3β/α (nM): GSK3α IC50
[2] = first value of the cell, 250 pM enzyme, 20 uM ATP, 20 hours at room temperature, read-out: GSK3β/α (nM): GSK3β IC50

Sequence of GSK3β (P49841 whole entry, species assumed): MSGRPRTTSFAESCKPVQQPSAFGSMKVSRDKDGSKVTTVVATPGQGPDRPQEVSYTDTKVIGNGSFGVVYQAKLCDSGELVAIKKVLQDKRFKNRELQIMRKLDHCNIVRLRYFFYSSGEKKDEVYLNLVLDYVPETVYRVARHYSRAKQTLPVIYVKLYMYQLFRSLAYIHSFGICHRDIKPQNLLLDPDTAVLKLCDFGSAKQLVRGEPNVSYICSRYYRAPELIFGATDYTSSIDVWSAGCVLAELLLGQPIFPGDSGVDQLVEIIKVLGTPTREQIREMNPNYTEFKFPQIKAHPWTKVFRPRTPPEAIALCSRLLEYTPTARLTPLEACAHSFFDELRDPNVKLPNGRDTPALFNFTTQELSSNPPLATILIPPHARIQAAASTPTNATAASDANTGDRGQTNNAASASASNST
Sequence of GSK3α (P49840 whole entry, species assumed): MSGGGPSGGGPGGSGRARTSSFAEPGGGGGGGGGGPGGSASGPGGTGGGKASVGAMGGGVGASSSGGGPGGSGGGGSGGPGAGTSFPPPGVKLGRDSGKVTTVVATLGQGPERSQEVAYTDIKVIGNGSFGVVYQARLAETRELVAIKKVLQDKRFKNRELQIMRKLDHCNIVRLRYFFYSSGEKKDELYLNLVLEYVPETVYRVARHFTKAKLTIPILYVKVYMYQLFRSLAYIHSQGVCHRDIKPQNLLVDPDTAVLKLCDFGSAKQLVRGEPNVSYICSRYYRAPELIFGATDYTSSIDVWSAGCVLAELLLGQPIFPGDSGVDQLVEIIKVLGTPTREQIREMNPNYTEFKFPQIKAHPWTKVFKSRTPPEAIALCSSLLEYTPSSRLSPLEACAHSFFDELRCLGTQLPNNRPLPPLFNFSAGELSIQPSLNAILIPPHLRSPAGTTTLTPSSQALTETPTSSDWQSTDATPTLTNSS

Structure (SMILES) | IC50 (GSK3α; [1]) [nM] | IC50 (GSK3β) [nM] | IC50 (pTau) [nM] | IC50 (GSK3α) [nM] | IC50 (GSK3β; [2]) [nM]
CCC1(c2cc(Cl)ncc2NC(=O)c2ccnc(Nc3ccccn3)c2)OCCO1 [Example 108, N-(6-Chloro-4-(2-ethyl-1,3-dioxolan-2-yl)pyridin-3-yl)-2-(pyridin-2-ylamino)isonicotinamide] | 0.95 | 1.4 | 30 | – | –
CC(C)CS(=O)(=O)c1ccncc1NC(=O)c1ccnc(Nc2ccc(C(F)(F)F)cn2)c1 [Example 185, N-(4-(Isobutylsulfonyl)pyridin-3-yl)-2-((5-(trifluoromethyl)pyridin-2-yl)amino)isonicotinamide] | 4.8 | 0.51 | 49 | – | –
N#Cc1ccc(Nc2cc(C(=O)Nc3cnccc3OCC(F)(F)F)ccn2)nc1 [Example 29, 2-((5-Cyanopyridin-2-yl)amino)-N-(4-(2,2,2-trifluoroethoxy)pyridin-3-yl)isonicotinamide] | – | – | 16 | 0.62 | 0.69
N#Cc1ccc(Nc2cc(C(=O)Nc3cnccc3-c3ccc(F)cc3)ccn2)nc1 [Example 56, 2-((5-Cyanopyridin-2-yl)amino)-N-(4-(4-fluorophenyl)pyridin-3-yl)isonicotinamide] | – | – | 36 | 0.98 | 2.4
C[C@@H]1CO[C@](c2cc(Cl)ncc2NC(=O)c2ccnc(Nc3ccc(C(F)(F)F)cn3)c2)(C2CC2)O1 [Example 96, N-(6-Chloro-4-((2R,4R)-2-cyclopropyl-4-methyl-1,3-dioxolan-2-yl)pyridin-3-yl)-2-((5-(trifluoromethyl)pyridin-2-yl)amino)isonicotinamide] | – | – | 39 | 0.16 | 0.29
O=C(Nc1cnc(F)cc1OCC(F)(F)F)c1ccnc(Nc2ccc(Cl)cn2)c1 [Example 110, 2-((5-Chloropyridin-2-yl)amino)-N-(6-fluoro-4-(2,2,2-trifluoroethoxy)pyridin-3-yl)isonicotinamide] | – | – | 170 | 0.51 | 3.8
O=C(Nc1cnccc1-c1ccccc1F)c1ccnc(Nc2ccc(C(F)(F)F)cn2)c1 [Example 49, N-(4-(2-Fluorophenyl)pyridin-3-yl)-2-((5-(trifluoromethyl)pyridin-2-yl)amino)isonicotinamide] | – | – | 53 | 0.32 | 0.65
O=C(Nc1cncc(-c2ccccc2F)n1)c1ccnc(Nc2ccc(C(F)(F)F)cn2)c1 [Example 190, N-(6-(2-Fluorophenyl)pyrazin-2-yl)-2-((5-(trifluoromethyl)pyridin-2-yl)amino)isonicotinamide] | – | – | 10000 | 29 | 68
Cc1ccc(Nc2cc(C(=O)Nc3cncc(-c4ccccc4F)c3)ccn2)nc1C [Example 143, 2-((5,6-Dimethylpyridin-2-yl)amino)-N-(5-(2-fluorophenyl)pyridin-3-yl)isonicotinamide] | – | 8.7 | 2800 | 6 | –
O=C(Nc1cnccc1S(=O)(=O)CC(F)(F)F)c1ccnc(Nc2ccc(C(F)(F)F)cn2)c1 [Example 184, N-(4-((2,2,2-Trifluoroethyl)sulfonyl)pyridin-3-yl)-2-((5-(trifluoromethyl)pyridin-2-yl)amino)isonicotinamide] | – | – | 130 | 4.8 | 120
O=C(Nc1cnccc1OCC(F)(F)F)c1ccnc(Nc2ccc(C(F)(F)F)cn2)c1F [Example 169, 3-Fluoro-N-(4-(2,2,2-trifluoroethoxy)pyridin-3-yl)-2-((5-(trifluoromethyl)pyridin-2-yl)amino)isonicotinamide] | – | – | 3900 | 10 | 28
CC(C)(C)COc1cc(F)ncc1NC(=O)c1ccnc(Nc2ccc(Cl)cn2)c1 [Example 112, 2-((5-Chloropyridin-2-yl)amino)-N-(6-fluoro-4-(neopentyloxy)pyridin-3-yl)isonicotinamide] | – | – | 850 | 3 | 5
CN(C)S(=O)(=O)c1ccc(Nc2cc(C(=O)Nc3cnccc3OCC(F)(F)F)ccn2)nc1 [Example 30, 2-((5-(N,N-Dimethylsulfamoyl)pyridin-2-yl)amino)-N-(4-(2,2,2-trifluoroethoxy)pyridin-3-yl)isonicotinamide] | – | – | 24 | 0.31 | 0.5
CC(=O)c1ccncc1NC(=O)c1ccnc(Nc2ccc(C(F)(F)F)cn2)c1 [Example 37, N-(4-Acetylpyridin-3-yl)-2-((5-(trifluoromethyl)pyridin-2-yl)amino)isonicotinamide] | – | – | 130 | 1.5 | 3.3
O=C(Nc1cnc(Cl)cc1[S+]([O-])C1CC1)c1ccnc(Nc2ccc(C(F)(F)F)cn2)c1 (stereo not drawn) [Example 180, N-(6-Chloro-4-(cyclopropylsulfinyl)pyridin-3-yl)-2-((5-(trifluoromethyl)pyridin-2-yl)amino)isonicotinamide] | – | – | 790 | 7.6 | 15
CCOc1ccncc1NC(=O)c1ccnc(Nc2ccccn2)c1 [Example 11, N-(4-Ethoxypyridin-3-yl)-2-(pyridin-2-ylamino)isonicotinamide] | – | – | 294 | 2.8 | 8.9
O=C(Nc1cncc(-c2cccc(F)c2F)c1)c1ccnc(Nc2ccc(C(F)(F)F)cn2)c1 [Example 130, N-(5-(2,3-Difluorophenyl)pyridin-3-yl)-2-((5-(trifluoromethyl)pyridin-2-yl)amino)isonicotinamide] | – | – | 2600 | 20 | 42
Cc1cc(C(C)(O)C2CC2)c(NC(=O)c2ccnc(Nc3ccc(C(F)(F)F)cn3)c2)cn1 (stereo not drawn) [Example 107, N-(4-(1-Cyclopropyl-1-hydroxyethyl)-6-methylpyridin-3-yl)-2-((5-(trifluoromethyl)pyridin-2-yl)amino)isonicotinamide] | – | – | 94 | 0.75 | 0.92
CCC1(c2cc(Cl)ncc2NC(=O)c2ccnc(Nc3ccc(C)cn3)c2)OCCO1 [Example 109, N-(6-Chloro-4-(2-ethyl-1,3-dioxolan-2-yl)pyridin-3-yl)-2-((5-methylpyridin-2-yl)amino)isonicotinamide] | 1.2 | 1.8 | 45 | – | –
O=C(Nc1cnc(F)cc1-c1ccccc1)c1ccnc(Nc2ccc(C(F)(F)F)cn2)c1 [Example 67, N-(6-Fluoro-4-phenylpyridin-3-yl)-2-((5-(trifluoromethyl)pyridin-2-yl)amino)isonicotinamide] | – | – | 524 | 4 | 7
O=C(Nc1cnccc1-c1ccc(F)cc1)c1ccnc(Nc2ccc(C(F)(F)F)cn2)c1 [Example 50, N-(4-(4-Fluorophenyl)pyridin-3-yl)-2-((5-(trifluoromethyl)pyridin-2-yl)amino)isonicotinamide] | – | – | 54 | 0.86 | 2.1
O=C(Nc1cnc(F)cc1OCC(F)F)c1ccnc(Nc2ccc(C(F)(F)F)cn2)c1 [Example 80, N-(4-(2,2-Difluoroethoxy)-6-fluoropyridin-3-yl)-2-((5-(trifluoromethyl)pyridin-2-yl)amino)isonicotinamide] | – | – | 86 | 3.3 | 6.2
N#Cc1cccc(Nc2cc(C(=O)Nc3cncc(-c4cccc(F)c4C#N)c3)ccn2)n1 [Example 166, N-(5-(2-Cyano-3-fluorophenyl)pyridin-3-yl)-2-((6-cyanopyridin-2-yl)amino)isonicotinamide] | – | – | 390 | 0.28 | 0.91
